Assay results: patent US5204326
Where two headings read alike, the source gives them in different places.

Settings: amide bond
[1] = the molecule shown is the open-chain precursor, 23-membered ring, as Reference Example 8 (not in excerpt), 3 steps

Substance “H-Asn-Leu-Ser(Bzl)-Thr(Bzl)-Lys(COCH2CH2CO-ONp)-OMe?” has a ring closure, isolated yield [1] of 34.9%.

“H-Ser(Bzl)-Asn-Leu-Ser(Bzl)-Thr(Bzl)-Tyr(CH2CO-ONp)-OMe?” showed a ring closure, isolated yield (the molecule shown is the open-chain precursor, 25-membered ring, as Reference Example 8, then Reference Example 9 (not in excerpt), 4 steps) of 43.8%.

“H-Abu-Asn-Leu-Ser(Bzl)-Thr(Bzl)-Cec(ONp)-OMe?” gave a ring closure, isolated yield (the molecule shown is the open-chain precursor, as Reference Example 8 (not in excerpt), 3 steps) of 47.1%.

Work on Acp-Asn-Leu-Ser(Bzl)-Thr(Bzl)-Asp-OEt yielded a ring closure, isolated yield (23-membered ring, ONp active ester (from TFA-ONp)/pyridine, pyridine/DMF, 50.0 °C, 3 steps) of 26.6%.

Substance “H-Ser(Bzl)-Asn-Leu-Ser(Bzl)-Thr(Bzl)-Cpc(ONp)-OMe?” has a ring closure, isolated yield [1] of 55.9%.
